Source: patent US20240423925A1, “GRANULE COMPRISING ENCAPSULATED ACTIVE INGREDIENTS” (DSM IP ASSETS B.V., priority 2021, published 2024)

Test: Differential scanning calorimetry (DSC) of sorbitol grades
Format: physicochemical
Conditions: sorbitol grades used as binder
Protocol: Different grades of sorbitol were then investigated in order to further reduce the energy required to generate good water soluble granules. Samples were analyzed via differential scanning calorimetry (DSC) in order to determine the sorbitol grade with the lowest melt energy. When using sorbitol grade Xtab300S (available at Roquette®) as a binder, the energy required to generate good water-soluble granules is lower than the other grades (cf. Table below).

Row | SMILES | Melt Energy [J/g]
1 | OC[C@@H](O)[C@@H](O)[C@H](O)[C@@H](O)CO [Example P300C, sorbitol] | 180.3
2 | OC[C@@H](O)[C@@H](O)[C@H](O)[C@@H](O)CO [Example P550SD, sorbitol] | 165.1
3 | OC[C@@H](O)[C@@H](O)[C@H](O)[C@@H](O)CO [Example P100C, sorbitol] | 181.9

Now from value to compound:

Row | Melt Energy [J/g] | SMILES
4 | 161.7 | OC[C@@H](O)[C@@H](O)[C@H](O)[C@@H](O)CO [Xtab200S, sorbitol]
5 | 126.5 | OC[C@@H](O)[C@@H](O)[C@H](O)[C@@H](O)CO [Xtab300S, sorbitol]
6 | 174.9 | OC[C@@H](O)[C@@H](O)[C@H](O)[C@@H](O)CO [Example P650C, sorbitol]
